Source: US5539123A, “Low molecular weight thiocarbamates as inhibitors of elastase, uses and method of synthesis” (University of Kentucky Research Foundation, priority 1994, dated 1996)

Test system: Zymosan Induced Inflammation
Experiment: Zymosan-induced paw inflammation (arthritis) in rats, percent volume increase of the paw
Type: in vivo, rat
Conditions: for % Oedema Volume change: 3.6 × 10^-4 mg/g IP vs control; for % Volume Increase, Mean of 3 experiments / % Volume Increase: 3.6 × 10^-4 mg/g IP
Description: A reversible arthritic condition was induced according to known procedures for the Zymosan-induced arthritis (See J. P. Tarayre, A. Delphon, et al., Pharmacological studies in zymosan inflammation in rats and mice, I: Zymosan-induced paw edema in rat and mice, Pharmacological Research, 21, (#4) 375-384 (1989); Takuo Sato, Yoshitaka Ino, et al., Inhibitory effects of a novel synthetic protease inhibitor (FUT-175), on the paw edema in rats and Zymosan-induced compliment activation in vitro, Japan J. Pharmacol., 42,587-589 (1986); David K. Gremmell, et al., Comparative effects of drugs on four paw edema models on the rat, Agents and Actions 4, (#1) 107-116 (1979); and D. C. Keystone, et al., Zymosan-induced arthritis: A model of chronic proliferative arthritis following activation of the alternative pathway of compliment, Arthritis and Rheumatism 20 (#7) 1396-1401 (1977)).
Each rat (250 g each) was kept in a restraining cage with light ether anesthesia until the administration of the drug. The procedure involves the intramuscular (IM) injection of 1 mg of Zymosan in 50 μL (microliters) of normal saline in the pad of a hind paw of the rat. Swelling becomes evident within 20 minutes and reaches a maximum within 1.5 hours. The swelling disappears after 24 hours. In the Figures the reversal to normal size of the paw within 24 hours is not shown. The degree of swelling is measured by a water displacement method and the percent (%) of volume increase of the paw is plotted against time (see J. P. Tarayre, A. Delphon, et al., Pharmacological studies in zymosan inflammation in rats and mice. I: Zymosan-induced paw edema in rat and mice, Pharmaco-logical Research, 21, (#4) 375-384 (1989); Takuo Sato, Yoshitaka Ino, et al., Inhibitory effects of a novel synthetic protease inhibitor (FUT-175), on the paw edema in rats and Zymosan-induced compliment activation in vitro, Japan J. Pharmacol., 42, 587-589 (1986)).
Control was conducted by injecting I.P. 100 μl of propylene glycol (the vehicle) 15 min. prior to Zymosan administration. […] Data from tables 1 and 1a are plotted in FIGS. 1 and 1a respectively.
In the experimental procedure the drug [PC-16, […] (FIG. 2) or 90 μg/rat (FIG. 3)] is dissolved in 100 μL of propylene glycol and is injected IP to the rats. Fifteen minutes later the Zymosan (1mg/50 μL of normal saline) solution is injected IM into the paw of the rats. The degree of swelling is subsequently measured at various time intervals for a period of 24 hours and is reported up to 4 hours.

CCCCNC(=O)Sc1nnnn1-c1ccccc1 [PC-16]
percent volume increase of rat paw (36 μg/kg IP 15 min prior to Zymosan, 1.5 hour, control 60%): 20%
swelling of rat paw (360 μg/kg IP 15 min prior to Zymosan): practically no swelling
% Oedema Volume change (10 min): -85.0%
% Oedema Volume change (20 min): -94.4%
% Oedema Volume change (30 min): -94.2%
% Oedema Volume change (40 min): -94.7%
% Oedema Volume change (50 min): -95.1%
% Oedema Volume change (60 min): -94.9%
% Oedema Volume change (65 min): -94.8%
% Oedema Volume change (70 min): -94.6%
% Oedema Volume change (80 min): -93.8%
% Oedema Volume change (95 min): -94.0%
% Oedema Volume change (100 min): -94.3%
% Oedema Volume change (105 min): -94.1%
% Oedema Volume change (115 min): -93.7%
% Oedema Volume change (120 min): -93.3%
% Oedema Volume change (130 min): -94.1%
% Oedema Volume change (135 min): -93.2%
% Oedema Volume change (145 min): -92.6%
% Oedema Volume change (150 min): -91.9%
% Oedema Volume change (160 min): -91.6%
% Oedema Volume change (175 min): -91.5%
% Oedema Volume change (190 min): -91.9%
% Oedema Volume change (200 min): -91.7%
% Oedema Volume change (205 min): -91.3%
% Oedema Volume change (210 min): -90.7%
% Oedema Volume change (220 min): -90.6%
% Oedema Volume change (225 min): -89.8%
% Oedema Volume change (240 min): -90.9%
% Volume Increase, Mean of 3 experiments (0 min): 0.00%
% Volume Increase, Mean of 3 experiments (5 min): 0.89%
% Volume Increase, Mean of 3 experiments (10 min): 1.43%
% Volume Increase, Mean of 3 experiments (15 min): 1.43%
% Volume Increase, Mean of 3 experiments (20 min): 1.61%
% Volume Increase, Mean of 3 experiments (30 min): 2.19%
% Volume Increase, Mean of 3 experiments (40 min): 2.37%
% Volume Increase, Mean of 3 experiments (45 min): 2.00%
% Volume Increase, Mean of 3 experiments (50 min): 2.37%
% Volume Increase, Mean of 3 experiments (55 min): 2.92%
% Volume Increase, Mean of 3 experiments (60 min): 2.92%
% Volume Increase (65 min): 2.92%
% Volume Increase (70 min): 3.13%
% Volume Increase, Mean of 3 experiments (75 min): 3.34%
% Volume Increase, Mean of 3 experiments (80 min): 3.52%
% Volume Increase, Mean of 3 experiments (85 min): 3.52%
% Volume Increase, Mean of 3 experiments (90 min): 3.52%
% Volume Increase (95 min): 3.52%
% Volume Increase, Mean of 3 experiments (100 min): 3.33%
% Volume Increase (105 min): 3.49%
% Volume Increase, Mean of 3 experiments (110 min): 3.65%
% Volume Increase (115 min): 3.78%
% Volume Increase, Mean of 3 experiments (120 min): 3.90%
% Volume Increase, Mean of 3 experiments (125 min): 3.71%
% Volume Increase, Mean of 3 experiments (130 min): 3.35%
% Volume Increase (135 min): 3.53%
% Volume Increase, Mean of 3 experiments (145 min): 3.71%
% Volume Increase, Mean of 3 experiments (150 min): 3.90%
% Volume Increase, Mean of 3 experiments (160 min): 3.90%
% Volume Increase, Mean of 3 experiments (170 min): 3.52%
% Volume Increase (175 min): 3.70%
% Volume Increase, Mean of 3 experiments (180 min): 3.88%
% Volume Increase, Mean of 3 experiments (190 min): 3.34%
% Volume Increase (200 min): 3.41%
